From patent EP4806899A1, “FUSED RING DERIVATIVE, PREPARATION METHOD THEREFOR AND USE THEREOF IN MEDICINE” (Shanghai Qilu Pharmaceutical Research and Development …, priority 2023, dated 2025) come the findings set out here.

What is called IC50 is the concentration that inhibits the measured activity by half. A lower IC50 goes with inhibition by little substance.

For one test, the target named is T1, human CYP11B2 enzyme (Homo sapiens, UniProt P19099).
T1 construct: the ORF of human CYP11B1 or CYP11B2 were transfected into G402 cells; expressed in transfected cells
T1 sequence (P19099 25-503): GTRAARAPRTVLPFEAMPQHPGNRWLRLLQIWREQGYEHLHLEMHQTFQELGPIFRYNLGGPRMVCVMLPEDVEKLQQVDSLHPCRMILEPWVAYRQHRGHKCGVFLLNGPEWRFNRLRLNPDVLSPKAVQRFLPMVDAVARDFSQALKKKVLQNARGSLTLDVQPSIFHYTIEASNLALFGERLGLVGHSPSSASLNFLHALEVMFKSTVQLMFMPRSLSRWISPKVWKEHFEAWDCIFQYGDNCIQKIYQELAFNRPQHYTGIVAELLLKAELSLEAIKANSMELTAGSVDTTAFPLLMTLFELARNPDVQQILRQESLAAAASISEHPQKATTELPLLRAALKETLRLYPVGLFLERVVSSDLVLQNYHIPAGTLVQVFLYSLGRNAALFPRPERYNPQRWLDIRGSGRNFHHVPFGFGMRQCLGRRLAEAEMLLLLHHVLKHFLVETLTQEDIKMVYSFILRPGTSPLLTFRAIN
The test can be described thus: Enzyme inhibition activity assay in G402 cells stably expressing human CYP11B2 (aldosterone production from 11-DOC, LC/MS). Format: cell-based. Conditions: 1 µM 11-DOC, 16 hours, aldosterone detected. An outline of the steps: (§1)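 G402 cells stably expressing human CYP11B2 or CYP11B1, preincubated 1 h with inhibitor in DMEM/F12 plus 2.5% charcoal-stripped FCS, then 16 h with 1 µM 11-DOC or 1 µM 11-DC. Aldosterone or cortisol quantified by LC/MS; IC50 from four-parameter logistic fit versus uninhibited control.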

For the next test, the target named is T2, human CYP11B1 enzyme (Homo sapiens, UniProt P15538).
T2 construct: the ORF of human CYP11B1 or CYP11B2 were transfected into G402 cells; expressed in transfected cells
T2 sequence (P15538 25-503): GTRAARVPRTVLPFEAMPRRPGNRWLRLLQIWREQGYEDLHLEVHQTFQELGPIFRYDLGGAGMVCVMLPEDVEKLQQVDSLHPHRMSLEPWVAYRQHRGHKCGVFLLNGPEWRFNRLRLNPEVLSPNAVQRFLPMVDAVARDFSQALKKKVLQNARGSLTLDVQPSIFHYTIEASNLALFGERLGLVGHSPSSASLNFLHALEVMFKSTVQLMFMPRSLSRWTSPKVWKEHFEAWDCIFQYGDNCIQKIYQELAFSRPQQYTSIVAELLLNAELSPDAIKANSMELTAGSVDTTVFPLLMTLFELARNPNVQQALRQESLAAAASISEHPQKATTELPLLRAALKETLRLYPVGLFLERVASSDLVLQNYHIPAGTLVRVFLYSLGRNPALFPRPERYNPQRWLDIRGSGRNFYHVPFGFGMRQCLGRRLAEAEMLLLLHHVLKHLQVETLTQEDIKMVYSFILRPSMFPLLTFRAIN
The test can be described thus: Enzyme inhibition activity assay in G402 cells stably expressing human CYP11B1 (cortisol production from 11-DC, LC/MS). Format: cell-based. Conditions: 1 µM 11-DC, 16 hours, cortisol detected. An outline of the steps: as §1

With `CCC(=O)N[C@@H]1CCOc2c(-c3ccc4c(c3)CCC(=O)N4C)cncc21` [Compound A02-P2], the IC50 against human CYP11B2 enzyme is 12.3 nM; against human CYP11B1 enzyme, 3680 nM.
The like results for `[2H]C([2H])([2H])OC(=O)N[C@@H]1CCOc2c(-c3cc(F)c4c(ccc(=O)n4C)c3)cncc21` [Compound A50] were, in that order, 11.1 nM and 2110 nM.
